In series [1] the test system is Chinese hamster lung fibroblast cell line VC8 (BRCA2−/−). In words: In vitro cell proliferation inhibition (MTT), VC8 cells. In kind it is cell-based. The settings on record: read-out: VC8 cell IC50.
A further series has as its system wild type cell line V79. Description: In vitro cell proliferation inhibition (MTT), V79 cells. It is filed as cell-based, Chinese hamster. The following applies: Cricetulus griseus, read-out: V79 cell IC50.
For the next series, the target named is PARP1 (Homo sapiens, UniProt P09874). In words: PARP1 enzymatic inhibition at molecular levels (ELISA). The following applies: ELISA IC50, PARP1 enzyme, molecular level. (In general: An ELISA detects its analyte on a solid surface through an enzyme-linked reagent.)
For series [2] the following is noted: compound during phase II clinical trials; cited from earlier work.
[3] abbreviates: Cricetulus griseus, V-C8, 72 h, MTT, 72 h, VC8 (BRCA2−/−).

What is called IC50 is the midpoint of a concentration-inhibition curve.

Values joined by “and” are separate entries in the source; they are usually repeats but may differ in a detail not shown here. Equal values may be shown once. Read-outs that look alike come from different tables or passages of the source.

PARP1, sequence (P09874 whole entry): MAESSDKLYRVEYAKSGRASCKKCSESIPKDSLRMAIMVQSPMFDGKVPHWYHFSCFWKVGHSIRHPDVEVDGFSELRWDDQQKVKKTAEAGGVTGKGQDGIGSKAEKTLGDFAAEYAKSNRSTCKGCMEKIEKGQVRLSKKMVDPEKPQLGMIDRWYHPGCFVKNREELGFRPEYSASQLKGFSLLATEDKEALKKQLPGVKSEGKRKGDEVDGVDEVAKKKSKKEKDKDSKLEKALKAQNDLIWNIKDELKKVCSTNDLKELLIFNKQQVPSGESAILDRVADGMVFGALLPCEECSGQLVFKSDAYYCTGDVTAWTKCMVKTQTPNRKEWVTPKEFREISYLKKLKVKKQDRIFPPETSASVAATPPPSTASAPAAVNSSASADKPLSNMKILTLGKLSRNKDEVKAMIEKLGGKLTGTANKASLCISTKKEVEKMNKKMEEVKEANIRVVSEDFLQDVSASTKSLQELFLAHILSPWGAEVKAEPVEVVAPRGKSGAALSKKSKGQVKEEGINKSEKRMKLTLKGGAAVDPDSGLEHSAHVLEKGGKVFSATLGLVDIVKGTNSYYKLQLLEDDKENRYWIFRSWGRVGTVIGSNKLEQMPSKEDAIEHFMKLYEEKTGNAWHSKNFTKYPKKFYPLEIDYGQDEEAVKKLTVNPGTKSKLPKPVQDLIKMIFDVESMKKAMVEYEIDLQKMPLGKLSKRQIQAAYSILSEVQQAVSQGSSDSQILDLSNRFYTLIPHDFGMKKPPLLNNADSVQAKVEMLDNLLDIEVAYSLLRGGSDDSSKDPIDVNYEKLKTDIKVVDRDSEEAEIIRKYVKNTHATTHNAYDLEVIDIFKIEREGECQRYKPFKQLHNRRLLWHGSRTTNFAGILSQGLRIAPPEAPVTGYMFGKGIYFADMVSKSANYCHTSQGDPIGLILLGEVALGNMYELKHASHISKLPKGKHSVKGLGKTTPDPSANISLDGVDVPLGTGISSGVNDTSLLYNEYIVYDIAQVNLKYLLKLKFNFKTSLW

For `CC(C)NCc1ccc(-c2cc3cc(F)cc(C(N)=O)c3o2)cc1` [compound 5o, 5-fluoro-2-[4-(isopropylaminomethyl)phenyl]benzofuran-7-carboxamide], the IC50 in series [1] (setting [3]) was 1090 nM; in series [1] (MTT, 72 h, VC8 (BRCA2−/−)), 941 nM; in the series with wild type cell line V79 (MTT, 72 h, wild type V79), more than 10000 nM; on PARP1 it was 32 nM and 18.8 nM and 25 nM.
In the case of `NC(=O)c1cc(F)cc2cc(-c3ccc(CN[C@@H]4CCOC4)cc3)oc12` [compound 5m, (R)-5-fluoro-2-{4-[(3-tetrahydrofurylamino)methyl]phenyl}benzofuran-7-carboxamide], the IC50 is 1150 nM in series [1] (setting [3]); 1180 nM in series [1] (MTT, 72 h, VC8 (BRCA2−/−)); more than 10000 nM in the series on wild type cell line V79 (MTT, 72 h, wild type V79); 49 nM and 9.5 nM and 17 nM at PARP1.
`NC(=O)c1cc(F)cc2cc(-c3ccc(CNC4CCNCC4)cc3)oc12` [compound 5l, 5-fluoro-2-{4-[(4-piperidyl)aminomethyl]phenyl}-benzofuran-7-carboxamide]: the IC50 in series [1] (setting [3]) is 8310 nM; in series [1] (MTT, 72 h, VC8 (BRCA2−/−)), 8220 nM; with wild type cell line V79 (MTT, 72 h, wild type V79) it was more than 10000 nM; on PARP1, 182 nM and 107 nM and 393 nM.
On PARP1, `CN(C)Cc1ccc(-c2oc3c(C(N)=O)cc(F)cc3c2Cl)cc1` [compound 7a, 3-chloro-5-fluoro-2-{4-[(dimethylamino)methyl]phenyl}benzofuran-7-carboxamide] came in with an IC50 of 9250 nM.
`CN(C)Cc1ccc(-c2cc3cc(F)cc(C(N)=O)c3o2)cc1` [compound 5a, 5-fluoro-2-{4-[(dimethylamino)methyl]phenyl}benzofuran-7-carboxamide]: the IC50 in series [1] (setting [3]) was 750 ± 100 nM; in the series on wild type cell line V79 (MTT, 72 h, wild type V79), more than 10000 nM; at PARP1 it was 11.8 ± 8.9 nM.
`NC(=O)c1cc(F)cc2cc(-c3ccc(CN4CCCCC4)cc3)oc12` [compound 5h, 5-fluoro-2-{4-[(piperidin-1-yl)methyl]phenyl}benzofuran-7-carboxamide]: the IC50 in series [1] (setting [3]) is 2600 nM; in series [1] (MTT, 72 h, VC8 (BRCA2−/−)), 2010 nM; in the series with wild type cell line V79 (MTT, 72 h, wild type V79) it was more than 10000 nM.
For `NC(=O)c1cc(F)cc2cc(-c3ccc(CN4CCCC4)cc3)oc12` [5f, 5-fluoro-2-{4-[(pyrrolidin-1-yl)methyl]phenyl}benzofuran-7-carboxamide], in that order: 3360 nM, 2620 nM and more than 10000 nM.
As to `NC(=O)c1cc(F)cc2cc(-c3ccc(CN4CCSCC4)cc3)oc12` [compound 5k, 5-fluoro-2-{4-[(thiomorpholino)methyl]phenyl}benzofuran-7-carboxamide], the IC50 in series [1] (setting [3]) was more than 10000 nM; in the series on wild type cell line V79 (MTT, 72 h, wild type V79), more than 10000 nM; against PARP1, 1060 nM and 2060 nM and 1520 nM.
As to `CN1CCN(Cc2ccc(-c3cc4cc(F)cc(C(N)=O)c4o3)cc2)CC1` [compound 5g, 5-fluoro-2-{4-[(4-methyl-1-piperazino)methyl]phenyl}benzofuran-7-carboxamide], the IC50 in series [1] (setting [3]) was 2080 nM; in series [1] (MTT, 72 h, VC8 (BRCA2−/−)) it was 2140 nM; in the series with wild type cell line V79 (MTT, 72 h, wild type V79), more than 10000 nM; at PARP1, 83 nM and 105 nM and 187 nM.
Turning to `CN1CCCN(Cc2ccc(-c3cc4cc(F)cc(C(N)=O)c4o3)cc2)CC1` [compound 5i, 5-fluoro-2-{4-[(4-methyl-1-homopiperazino)methyl]phenyl}benzofuran-7-carboxamide], the IC50 is more than 10000 nM in the series with wild type cell line V79 (MTT, 72 h, wild type V79); 104 nM and 101 nM and 207 nM against PARP1.
Take `NC(=O)c1cc(F)cc2cc(-c3ccc(CN4CCOCC4)cc3)oc12` [compound 5j, 5-fluoro-2-{4-[(1-morpholinyl)methyl]phenyl}benzofuran-7-carboxamide]: in the series with wild type cell line V79 (MTT, 72 h, wild type V79), the IC50 is more than 10000 nM.
As to `NC(=O)c1cc(F)cc2cc(-c3ccc(CNC4CC4)cc3)oc12` [compound 5n, 5-fluoro-2-[4-(cyclopropylaminomethyl)phenyl]benzofuran-7-carboxamide], the IC50 with wild type cell line V79 (MTT, 72 h, wild type V79) is more than 10000 nM; on PARP1, 18 nM and 31 nM and 73 nM.
For the compound `CNCc1ccc(-c2cc3cc(F)cc(C(N)=O)c3o2)nc1` [compound 5d, 5-fluoro-2-{5-[(methylamino)methyl]-2-pyridyl}benzofuran-7-carboxamide], the IC50 in series [1] (setting [3]) was 3270 nM; in series [1] (MTT, 72 h, VC8 (BRCA2−/−)), 1740 nM; in the series with wild type cell line V79 (MTT, 72 h, wild type V79), more than 10000 nM; against PARP1, 23 nM and 27.9 nM and 58 nM.
On to `CNCc1ccc(-c2cc3cc(F)cc(C(N)=O)c3o2)c(F)c1` [compound 5p, 5-fluoro-2-{4-[(methylamino)methyl]-2-fluorophenyl}benzofuran-7-carboxamide], for which the IC50 in series [1] (setting [3]) was 1360 nM; in series [1] (MTT, 72 h, VC8 (BRCA2−/−)), 1620 nM; in the series on wild type cell line V79 (MTT, 72 h, wild type V79), more than 10000 nM; against PARP1, 22 nM and 8.9 nM and 40 nM.
Take `O=C(c1cc(Cc2n[nH]c(=O)c3ccccc23)ccc1F)N1CCN(C(=O)C2CC2)CC1` [AZD2281, Olaparib, reference compound]: the IC50 in series [1] (Cricetulus griseus, V-C8, 72 h) is 820 ± 330 nM; in the series on wild type cell line V79 (V79, 72 h) it was more than 10000 nM. For the same compound, the “oral bioavailability of rats” value in series [2] was 11.1%.
As to `CNCc1ccc(-c2cc3cc(F)cc(C(N)=O)c3o2)cn1` [compound 5c, 5-fluoro-2-{6-[(methylamino)methyl]-3-pyridyl}benzofuran-7-carboxamide], the IC50 was more than 10000 nM in the series on wild type cell line V79 (MTT, 72 h, wild type V79); 37 nM and 34.2 nM and 72 nM on PARP1.
For `CNCc1ccc(-c2cc3cc(F)cc(C(N)=O)c3o2)cc1F` [compound 5e, 5-fluoro-2-{4-[(methylamino)methyl]-3-fluorophenyl}benzofuran-7-carboxamide], the IC50 in series [1] (setting [3]) was 2080 nM; in series [1] (MTT, 72 h, VC8 (BRCA2−/−)) it was 1510 nM; in the series with wild type cell line V79 (MTT, 72 h, wild type V79), more than 10000 nM; at PARP1 it was 14.8 nM and 20.8 nM and 74 nM.

Source of the values: patent publication US9533965B2, “2-arylbenzofuran-7-formamide compounds, preparation method and use thereof” (SHANGHAI INSTITUTE OF MATERIA MEDICA, CHINESE ACADEMY OF …, priority 2012, dated 2017).
